This passage reports inhibition and IC50 results from ChEMBL document CHEMBL1126756, “Studies on neurokinin antagonists. 3. Design and structure-activity relationships of new branched tripeptides N alpha-(substituted L-aspartyl, L-ornithyl, or L-lysyl)-N-methyl-N-(phenylmethyl)-L-phenylalaninamides as substance P antagonists” (J Med Chem, 1993).

In general, inhibition refers to the change of the read-out against control, counted positive when it falls. The IC50 is the concentration at which inhibition is half-maximal.

Activity calls are given as the source filed them. The calls are words filed in the database; no cut-off is given here.

In experiment [1] the target is Substance-P receptor (Cavia porcellus) (UniProt P30547). Briefly: Tested for percent inhibition against [3H]SP (substance P) binding against NK1 receptor relative to compound. The note with it: concentration not given here.
Substance-P receptor (Cavia porcellus), sequence (P30547 whole entry): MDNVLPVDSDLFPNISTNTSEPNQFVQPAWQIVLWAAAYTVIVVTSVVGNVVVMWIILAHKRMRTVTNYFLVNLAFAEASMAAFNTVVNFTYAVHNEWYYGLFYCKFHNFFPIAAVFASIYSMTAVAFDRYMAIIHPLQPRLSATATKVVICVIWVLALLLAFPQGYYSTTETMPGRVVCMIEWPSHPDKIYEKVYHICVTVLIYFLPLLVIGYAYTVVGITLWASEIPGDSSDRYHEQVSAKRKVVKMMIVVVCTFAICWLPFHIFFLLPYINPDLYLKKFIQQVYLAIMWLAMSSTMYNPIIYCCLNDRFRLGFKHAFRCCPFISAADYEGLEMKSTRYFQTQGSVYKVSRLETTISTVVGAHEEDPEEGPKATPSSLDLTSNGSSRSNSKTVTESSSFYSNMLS
For a further experiment, the target named is Substance-P receptor (Cavia porcellus, UniProt P30547). The experiment is described as follows: Tested for inhibition against [3H]-SP (substance P) (1 nM) binding to NK1 receptor in guinea pig lung membranes. Type of experiment: cell membranes, Membrane.
Substance-P receptor, sequence (P30547 whole entry): as above
The target in experiment [2] is Substance-P receptor (Cavia porcellus) (UniProt P30547). The experiment is described as follows: Percent inhibition of [3H]-SP (substance P) binding to NK1 receptor relative to compound 7 (100). Set-up: concentration or dose not given beside the values. The conditions noted are these: concentration not given here.
The target is the same in experiment [3]. Briefly: Tested for percent inhibition against [3H]SP (substance P) binding against NK1 receptor relative to compound 7 at 100 ng/mL; No inhibition.
The target is the same in experiment [4]. The experiment is described as follows: Tested for percent inhibition against [3H]-SP (substance P) binding against NK1 receptor. The conditions noted are these: concentration not given here.
For experiment [5] the target is unchanged. Briefly: Tested for percent inhibition against [3H]SP (substance P) binding against NK1 receptor relative to compound 5 (100). The note with it: concentration not given here.
Experiment [6] shares this target. The experiment is described as follows: Tested for percent inhibition against [3H]-SP (substance P) binding against NK1 receptor relative to compound 5 at 100 ng/mL; No inhibition.

`C[C@@H](O)C(NC(=O)CC(NC(=O)c1c[nH]c2ccccc12)C(=O)N[C@H](Cc1ccccc1)C(=O)N(C)Cc1ccccc1)C(N)=O` (stereo partly drawn): in experiment [1], the inhibition is 100%. The same molecule returned an IC50 on Substance-P receptor of 23 nM.
In the case of `CC(=O)NCC(=O)NCCCCC(NC(=O)c1c[nH]c2ccccc12)C(=O)N[C@H](Cc1ccccc1)C(=O)N(C)Cc1ccccc1` (stereo partly drawn), the inhibition in experiment [2] was 98%.
`CC(=O)NC(CO)C(=O)NCCCCC(NC(=O)c1c[nH]c2ccccc12)C(=O)N[C@H](Cc1ccccc1)C(=O)N(C)Cc1ccccc1` (stereo partly drawn): the inhibition in experiment [2] was determined as 136%.
Turning to `CC(=O)NC(CCCCNC(=O)C(NC(C)=O)C(C)O)C(=O)N[C@H](Cc1ccccc1)C(=O)N(C)Cc1ccccc1` (stereo partly drawn), the inhibition entry in experiment [3] was “inactive”.
Turning to `CC(=O)N[C@H](C(=O)NCCCC[C@H](NC(=O)c1c[nH]c2ccccc12)C(=O)N[C@H](Cc1ccccc1)C(=O)N(C)Cc1ccccc1)[C@@H](C)O`, the inhibition in experiment [4] is 100%. At Substance-P receptor, the IC50 came to 13 nM.
`CC(=O)NC(C(=O)NCCCC(NC(=O)c1c[nH]c2ccccc12)C(=O)N[C@H](Cc1ccccc1)C(=O)N(C)Cc1ccccc1)[C@@H](C)O` (stereo partly drawn) came in with an IC50 on Substance-P receptor of 21 nM.
On to `CN(Cc1ccccc1)C(=O)[C@@H](Cc1ccccc1)NC(=O)C(CC(=O)NCC(N)=O)NC(=O)c1c[nH]c2ccccc12` (stereo partly drawn), for which the inhibition in experiment [5] was 128%.
As for `CC(O)C(NC(=O)OC(C)(C)C)C(=O)NCCCCC(NC(=O)c1c[nH]c2ccccc12)C(=O)N[C@H](Cc1ccccc1)C(=O)N(C)Cc1ccccc1` (stereo partly drawn), in experiment [2], the inhibition is 98%.
With `CC(=O)NCCCCC(NC(=O)c1c[nH]c2ccccc12)C(=O)N[C@H](Cc1ccccc1)C(=O)N(C)Cc1ccccc1` (stereo partly drawn), the inhibition in experiment [2] worked out at 87%.
`CC(O)C(NC(=O)CC(N)C(=O)N[C@H](Cc1ccccc1)C(=O)N(C)Cc1ccccc1)C(N)=O` (stereo partly drawn): the inhibition entry in experiment [6] was “inactive”.
On to `CC(=O)N[C@H](C(=O)NCCCC[C@@H](NC(=O)c1c[nH]c2ccccc12)C(=O)N[C@H](Cc1ccccc1)C(=O)N(C)Cc1ccccc1)[C@@H](C)O`, for which, in experiment [3], the inhibition entry is “inactive”.
In the case of `CC(O)C(NC(=O)CC(NC(=O)OC(C)(C)C)C(=O)N[C@H](Cc1ccccc1)C(=O)N(C)Cc1ccccc1)C(N)=O` (stereo partly drawn), the inhibition entry in experiment [6] was “inactive”.
On to `CN(C)C(=O)NCCCCC(NC(=O)c1c[nH]c2ccccc12)C(=O)N[C@H](Cc1ccccc1)C(=O)N(C)Cc1ccccc1` (stereo partly drawn), for which the inhibition in experiment [2] is 144%.
Same read-out and setting: in the case of `CN(Cc1ccccc1)C(=O)[C@@H](Cc1ccccc1)NC(=O)C(CCCCNC(=O)OCc1ccccc1)NC(=O)c1cc2ccccc2[nH]1` (stereo partly drawn) it was 22%; in that of `CN(Cc1ccccc1)C(=O)[C@@H](Cc1ccccc1)NC(=O)C(CCCCN)NC(=O)c1c[nH]c2ccccc12` (stereo partly drawn), 91%.
For `CN(Cc1ccccc1)C(=O)[C@@H](Cc1ccccc1)NC(=O)C(CC(=O)NC(CCC(N)=O)C(=O)NC(C)(C)C)NC(=O)c1c[nH]c2ccccc12` (stereo partly drawn), the inhibition in experiment [5] was 96%.
As to `CN(Cc1ccccc1)C(=O)[C@@H](Cc1ccccc1)NC(=O)C(CC(=O)NC(CO)C(N)=O)NC(=O)c1c[nH]c2ccccc12` (stereo partly drawn), the inhibition in experiment [5] turned out to be 100%.
Same read-out and setting: the same measure for `CN(Cc1ccccc1)C(=O)[C@@H](Cc1ccccc1)NC(=O)C(CC(=O)NC(CCC(N)=O)C(N)=O)NC(=O)c1c[nH]c2ccccc12` (stereo partly drawn): 56%.
As to `CC(=O)NC(C(=O)NCCCCC(NC(=O)c1cc2ccccc2[nH]1)C(=O)N[C@H](Cc1ccccc1)C(=O)N(C)Cc1ccccc1)[C@@H](C)O` (stereo partly drawn), the IC50 at Substance-P receptor was found to be 19 nM.
For the molecule `CC(=O)NCCC(=O)NCCCCC(NC(=O)c1c[nH]c2ccccc12)C(=O)N[C@H](Cc1ccccc1)C(=O)N(C)Cc1ccccc1` (stereo partly drawn), in experiment [2], the inhibition turned out to be 82%.
For the molecule `CN(Cc1ccccc1)C(=O)[C@@H](Cc1ccccc1)NC(=O)C(CCCCNC(=O)N1CCOCC1)NC(=O)c1c[nH]c2ccccc12` (stereo partly drawn), in experiment [2], the inhibition is 53%.
`CC(=O)NC(C(=O)NCCCCC(NC(=O)OC(C)(C)C)C(=O)N[C@H](Cc1ccccc1)C(=O)N(C)Cc1ccccc1)C(C)O` (stereo partly drawn): the inhibition result in experiment [3] was “inactive”.
For the molecule `CN(Cc1ccccc1)C(=O)[C@@H](Cc1ccccc1)NC(=O)C(CCCCNC(=O)C(C)(C)C)NC(=O)c1c[nH]c2ccccc12` (stereo partly drawn), the inhibition in experiment [2] is 44%.
For `CC(=O)NC(C(=O)NCCCCC(N)C(=O)N[C@H](Cc1ccccc1)C(=O)N(C)Cc1ccccc1)C(C)O` (stereo partly drawn), the inhibition entry in experiment [3] is “inactive”.
On the same count and under the same terms, in the case of `CC(=O)NC(C(=O)NCCCCC(NC(=O)c1ccccc1)C(=O)N[C@H](Cc1ccccc1)C(=O)N(C)Cc1ccccc1)C(C)O` (stereo partly drawn) it was “inactive”.
`C[C@@H](O)C(NC(=O)CC(NC(=O)c1cc2ccccc2[nH]1)C(=O)N[C@H](Cc1ccccc1)C(=O)N(C)Cc1ccccc1)C(N)=O` (stereo partly drawn): on Substance-P receptor, the IC50 amounted to 54 nM.
